{"source": "patent US20230278972A1", "about": "“SUBSTITUTED HALOALKYL SULFONANILIDE HERBICIDES” (FMC Corporation, priority 2020, published 2023)", "assay_type_in_all_cases": "in vivo", "key": {"[1]": {"tested_on": "blackgrass (Alopecurus myosuroides)", "assay": "Test A1 preemergence, blackgrass", "method_in_brief": "(§1)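 Pre: seeds in loam/sand blend, directed soil spray. Post: potted plants, same soil, 2–10 cm, 1–2 leaf stage. Chemicals in non-phytotoxic solvent + surfactant for both.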"}, "corn (Zea mays)": {"tested_on": "corn (Zea mays)", "assay": "Test A1 preemergence, corn", "method_in_brief": "as §1"}, "[2]": {"tested_on": "goosegrass (Eleusine indica)", "assay": "Test A1 preemergence, goosegrass", "method_in_brief": "as §1"}, "[3]": {"tested_on": "Pigweed, Palmer (palmer amaranth, palmer pigweed, Amaranthus palmeri)", "assay": "Test A1 preemergence, Pigweed, Palmer", "method_in_brief": "as §1"}, "[4]": {"tested_on": "ragweed (common ragweed, Ambrosia artemisiifolia)", "assay": "Test A1 preemergence, ragweed", "method_in_brief": "as §1"}, "[5]": {"tested_on": "Pigweed, Palmer (palmer amaranth, palmer pigweed, Amaranthus palmeri)", "assay": "Test A1 postemergence, Pigweed, Palmer", "method_in_brief": "as §1"}, "[6]": {"tested_on": "ragweed (common ragweed, Ambrosia artemisiifolia)", "assay": "Test A1 postemergence, ragweed", "method_in_brief": "as §1"}, "[7]": {"tested_on": "galium (catchweed bedstraw, Galium aparine)", "assay": "Test A1 postemergence, galium", "method_in_brief": "as §1"}, "[8]": {"tested_on": "ducksalad (Heteranthera limosa)", "assay": "Test B1 flooded paddy test, ducksalad", "conditions": "250 g ai/ha, Flood, applied to paddy water, 2-leaf stage, visually evaluated after 10 to 14 days", "from_the_text": "A dash (-) response means no test result."}, "[9]": {"conditions": "31 g ai/ha, 0 to 100 scale (0 no effect, 100 complete control)"}, "[10]": {"conditions": "125 g ai/ha, 0 to 100 scale, 0 no effect, 100 complete control"}, "[11]": {"conditions": "31 g ai/ha, postemergence, 0 to 100 scale (0 no effect, 100 complete control)"}, "[12]": {"conditions": "Postemergence, 125 g ai/ha, 0 to 100 scale"}}, "data": [{"smiles": "CCC1CC(c2cc(N(COC(=O)C(C)(C)C)S(=O)(=O)C(F)(F)F)c(C)cc2C)=NO1", "note": "(centres unmarked) [Compound 376]", "values": [{"measurement": "Plant response rating, Blackgrass", "setting": "[1]; [9]", "result": 0}, {"measurement": "Plant response rating, Blackgrass", "setting": "[1]; [10]", "result": 20}, {"measurement": "Plant response rating, Corn", "setting": "corn (Zea mays); [9]", "result": 0}, {"measurement": "Plant response rating, Corn", "setting": "corn (Zea mays); [10]", "result": 0}, {"measurement": "Plant response rating, Goosegrass", "setting": "[2]; [9]", "result": 50}, {"measurement": "Plant response rating, Goosegrass", "setting": "[2]; [10]", "result": 100}, {"measurement": "Plant response rating, Pigweed, Palmer", "setting": "[3]; [9]", "result": 0}, {"measurement": "Plant response rating, Pigweed, Palmer", "setting": "[3]; [10]", "result": 40}, {"measurement": "Plant response rating, Ragweed", "setting": "[4]; [9]", "result": 0}, {"measurement": "Plant response rating, Ragweed", "setting": "[4]; [10]", "result": 0}, {"measurement": "Pigweed, Palmer plant response rating", "setting": "[5]; [11]", "result": 0}, {"measurement": "Plant response rating, Pigweed, Palmer", "setting": "[5]; [12]", "result": 20}, {"measurement": "Ragweed plant response rating", "setting": "[6]; [11]", "result": 20}, {"measurement": "Plant response rating, Ragweed", "setting": "[6]; [12]", "result": 40}, {"measurement": "Galium plant response rating", "setting": "[7]; [11]", "result": 10}, {"measurement": "Plant response rating, Galium", "setting": "[7]; [12]", "result": 30}, {"measurement": "Plant response rating, Ducksalad (0 to 100 scale, 0 is no effect, 100 is complete control)", "setting": "[8]", "result": 70}]}]}
